Results reported in paper PMC11996864, “A small-molecule inhibitor of BCL10-MALT1 interaction abrogates progression of diffuse large B cell lymphoma” (The Journal of Clinical Investigation, 2025).
Several values for one entry are separate records, joined by “and”; a condition that tells them apart may be missing. Equal values may be shown once. Read-outs that look alike come from different tables or passages of the source.

Assays:
LCK = biological target: T1, LCK (Homo sapiens, UniProt P06239); assay: SAFETYscan78 off-target screen; conditions: off-target panel; read-out: EC50 or IC50, LCK
T1 construct: Eurofins SAFETYscan78
From the text: (§1) We also tested for possible adverse actions of M1i-124 on cytochrome P450 (CYP) enzymes that might limit its use in vivo. The CYP family of enzymes are responsible for phase I metabolism of many drugs and endogenous substances, and their inhibition can lead to unanticipated toxicities. […] To further test for potential off-target effects of M1i-124, we conducted an in vitro safety pharmacology profiling screen that measures the ability of a candidate compound to inhibit 78 key GPCRs, ion channels, nuclear hormone receptors, neurotransmitter transporters, kinases, and non-kinase enzymes. […]
(§2) cological profile for M1i-124. EC50 or I C50 f or act i vi t y agai nst sel ect GPCRs, i on channel s, nucl ear hor mone r eceptor s, ki nases, and neur otr ansmi tter tr anspor ter s i n an off-target activity screen of M1i-124 (Eurofins SAFETYscan78). When unmeasurable, the EC50 or IC50 for an indicated target is listed as >10 […]
(§3) (1 picture or pasted object on this page, not shown here)

COX1/2 = assay: SAFETYscan78 off-target screen; conditions: off-target panel; read-out: EC50 or IC50, COX1/2
From the text: as §1, §2, §3

VEGFR2 = biological target: T2, VEGFR2 (Homo sapiens, UniProt P35968); assay: SAFETYscan78 off-target screen; conditions: off-target panel; read-out: EC50 or IC50, VEGFR2
T2 construct: Eurofins SAFETYscan78
From the text: as §1, §2, §3

PDE4 = biological target: T3, PDE4 (Homo sapiens, UniProt Q08499); assay: SAFETYscan78 off-target screen; conditions: off-target panel; read-out: EC50 or IC50, PDE4
T3 construct: Eurofins SAFETYscan78
From the text: as §1, §2, §3

OCI-Ly7 cells = assay: Apoptosis, annexin staining flow cytometry; assay type: cell-based, human
[1] = In vivo pharmacokinetics, plasma LC-MS/MS
Description: Pharmacokinetic and cytochrome P450 inhibition studies. Studies were performed with the assistance of Touchstone Biosciences (Plymouth Meeting, Pennsylvania). For pharmacokinetic bioanalysis, male CD-1 mice were fasted overnight before being dosed with M1i-124 via oral gavage (20mg/kg), intraperitoneal injection in the lower right quadrant of the abdomen (20 mg/kg), or intravenous tail vein injection (5 mg/kg). All blood samples were taken via tail vein at 5, 15, and 30 minutes, and 1, 2, 4, 6, 8, and 24 hours after compound administration. The plasma concentration of the compound was determined using LC-MS/MS analysis. […]

T1 sequence (P06239 whole entry): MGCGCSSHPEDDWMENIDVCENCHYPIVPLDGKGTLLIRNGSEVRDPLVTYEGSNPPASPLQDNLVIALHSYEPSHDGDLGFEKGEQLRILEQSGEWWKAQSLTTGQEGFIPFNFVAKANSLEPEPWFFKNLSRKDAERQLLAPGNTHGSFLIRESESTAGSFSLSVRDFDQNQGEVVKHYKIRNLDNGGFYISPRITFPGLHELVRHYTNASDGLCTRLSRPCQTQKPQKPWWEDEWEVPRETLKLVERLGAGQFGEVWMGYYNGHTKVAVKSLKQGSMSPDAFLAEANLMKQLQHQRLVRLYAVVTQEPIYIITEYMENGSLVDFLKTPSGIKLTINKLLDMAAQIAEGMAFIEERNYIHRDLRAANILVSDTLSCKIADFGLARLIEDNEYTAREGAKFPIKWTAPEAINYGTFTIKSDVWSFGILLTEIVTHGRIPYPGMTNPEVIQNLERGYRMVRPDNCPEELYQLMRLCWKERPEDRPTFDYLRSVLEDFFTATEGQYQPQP
T2 sequence (P35968 20-1356): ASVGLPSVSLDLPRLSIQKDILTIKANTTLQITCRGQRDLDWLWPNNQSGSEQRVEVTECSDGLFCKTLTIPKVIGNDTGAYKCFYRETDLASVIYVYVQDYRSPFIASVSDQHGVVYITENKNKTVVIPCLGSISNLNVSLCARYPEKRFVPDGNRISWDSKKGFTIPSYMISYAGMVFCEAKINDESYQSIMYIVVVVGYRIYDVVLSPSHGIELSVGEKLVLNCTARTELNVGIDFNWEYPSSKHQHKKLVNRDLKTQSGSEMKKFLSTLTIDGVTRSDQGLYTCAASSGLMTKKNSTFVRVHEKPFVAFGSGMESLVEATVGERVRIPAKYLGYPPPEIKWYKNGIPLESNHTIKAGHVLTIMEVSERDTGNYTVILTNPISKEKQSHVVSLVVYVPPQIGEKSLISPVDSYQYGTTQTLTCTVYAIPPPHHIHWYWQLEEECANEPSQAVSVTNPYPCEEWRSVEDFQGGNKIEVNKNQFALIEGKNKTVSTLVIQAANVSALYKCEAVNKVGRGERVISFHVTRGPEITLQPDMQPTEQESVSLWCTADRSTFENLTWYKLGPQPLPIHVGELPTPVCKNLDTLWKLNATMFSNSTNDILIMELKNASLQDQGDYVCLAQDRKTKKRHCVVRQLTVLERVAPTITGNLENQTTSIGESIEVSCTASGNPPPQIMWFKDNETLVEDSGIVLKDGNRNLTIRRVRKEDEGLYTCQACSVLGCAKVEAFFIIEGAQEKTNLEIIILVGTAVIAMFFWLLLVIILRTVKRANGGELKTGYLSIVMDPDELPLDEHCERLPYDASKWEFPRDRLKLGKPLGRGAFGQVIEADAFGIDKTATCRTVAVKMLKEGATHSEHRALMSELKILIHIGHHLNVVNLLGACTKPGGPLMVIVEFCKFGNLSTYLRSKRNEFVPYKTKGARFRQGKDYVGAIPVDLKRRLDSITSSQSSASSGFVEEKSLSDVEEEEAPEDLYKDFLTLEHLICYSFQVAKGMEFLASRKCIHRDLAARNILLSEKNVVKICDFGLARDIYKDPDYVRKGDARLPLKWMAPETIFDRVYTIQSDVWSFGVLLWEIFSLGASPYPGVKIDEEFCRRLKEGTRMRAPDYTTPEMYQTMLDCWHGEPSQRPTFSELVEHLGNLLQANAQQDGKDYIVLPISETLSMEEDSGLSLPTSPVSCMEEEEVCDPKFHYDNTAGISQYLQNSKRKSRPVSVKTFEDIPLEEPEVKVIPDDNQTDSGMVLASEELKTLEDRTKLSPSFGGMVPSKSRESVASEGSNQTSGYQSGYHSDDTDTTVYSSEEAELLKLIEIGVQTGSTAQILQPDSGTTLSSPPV
T3 sequence (Q08499 303-809 limits assumed): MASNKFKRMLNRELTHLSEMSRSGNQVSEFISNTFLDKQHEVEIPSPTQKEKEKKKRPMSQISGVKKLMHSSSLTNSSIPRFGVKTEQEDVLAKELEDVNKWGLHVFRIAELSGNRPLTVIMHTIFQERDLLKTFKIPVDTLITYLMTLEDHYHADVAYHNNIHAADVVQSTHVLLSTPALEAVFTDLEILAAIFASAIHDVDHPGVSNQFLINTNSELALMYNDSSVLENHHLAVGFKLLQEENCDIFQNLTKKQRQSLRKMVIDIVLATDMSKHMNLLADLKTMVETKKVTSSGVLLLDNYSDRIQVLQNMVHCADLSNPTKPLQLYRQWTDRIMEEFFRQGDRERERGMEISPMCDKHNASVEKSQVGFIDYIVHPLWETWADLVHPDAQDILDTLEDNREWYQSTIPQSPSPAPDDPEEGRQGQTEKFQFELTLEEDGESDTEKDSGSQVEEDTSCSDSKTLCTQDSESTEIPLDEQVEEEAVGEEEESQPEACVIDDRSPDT

## O=S(=O)(NCc1ccc2c(c1)OCO2)c1ccc(Cc2ccc(S(=O)(=O)NCc3ccc4c(c3)OCO4)cc2)cc1 [M1i-124]
LCK
  IC50: > 10 µM
COX1/2
  IC50: > 10 µM
VEGFR2
  IC50: > 10 µM
PDE4
  IC50: > 10 µM
OCI-Ly7 cells; Ly7, individual replicates
  Annexin (% positivity): 27% and 16.65% and 14.5%
OCI-Ly7 cells; result in words
  apoptosis of OCI-Ly7 cells: either no or minimal apoptotic response
[1]; IP, 0.083 hours
  Plasma concentration (IP): 658 ng/mL and 561 ng/mL
[1]; IP, 0.25 hours
  Plasma concentration (IP): 720 ng/mL and 607 ng/mL
[1]; IP, 0.5 hours
  Plasma concentration (IP): 775 ng/mL and 671 ng/mL
[1]; IP, 1 hours
  Plasma concentration (IP): 437 ng/mL and 307 ng/mL
[1]; IP, 2 hours
  Plasma concentration (IP): 242 ng/mL and 173 ng/mL
[1]; IP, 4 hours
  Plasma concentration (IP): 110 ng/mL and 86.5 ng/mL
[1]; IP, 6 hours
  Plasma concentration (IP): 59.4 ng/mL
[1]; IP, 8 hours
  Plasma concentration (IP): 38.1 ng/mL and 35.4 ng/mL
[1]; IP, 24 hours
  Plasma concentration (IP): 7.87 ng/mL
[1]; IV, 0.083 hours
  Plasma concentration (IV): 2080 ng/mL and 1440 ng/mL
[1]; IV, 0.25 hours
  Plasma concentration (IV): 1320 ng/mL and 1020 ng/mL
[1]; IV, 0.5 hours
  Plasma concentration (IV): 302 ng/mL
[1]; IV, 1 hours
  Plasma concentration (IV): 115 ng/mL and 152 ng/mL
[1]; IV, 2 hours
  Plasma concentration (IV): 30.6 ng/mL and 29 ng/mL
[1]; IV, 4 hours
  Plasma concentration (IV): 16.3 ng/mL
[1]; IV, 6 hours
  Plasma concentration (IV): 12.7 ng/mL and 16.3 ng/mL
[1]; IV, 8 hours
  Plasma concentration (IV): 12.6 ng/mL
[1]; IV, 24 hours
  Plasma concentration (IV): 2.97 ng/mL and 3.88 ng/mL
[1]; PO, 0.083 hours
  Plasma concentration (PO): 306 ng/mL and 267 ng/mL
[1]; PO, 0.25 hours
  Plasma concentration (PO): 56.5 ng/mL and 86.1 ng/mL
[1]; PO, 0.5 hours
  Plasma concentration (PO): 57.2 ng/mL
[1]; PO, 1 hours
  Plasma concentration (PO): 25.9 ng/mL and 21.8 ng/mL
[1]; PO, 2 hours
  Plasma concentration (PO): 14.7 ng/mL and 15.7 ng/mL
[1]; PO, 4 hours
  Plasma concentration (PO): 13.1 ng/mL
[1]; PO, 6 hours
  Plasma concentration (PO): 9.73 ng/mL and 11.5 ng/mL
[1]; PO, 8 hours
  Plasma concentration (PO): 8.44 ng/mL and 9.62 ng/mL
[1]; PO, 24 hours
  Plasma concentration (PO): 2.39 ng/mL and 2.74 ng/mL
[1]; male, CD-1, mouse, in vivo, ip, 20 mg/kg, IP, 6 hours, read-out: Plasma concentration (IP)
  concentration at 6 h: 54.8 ng/mL
[1]; male, CD-1, mouse, in vivo, ip, 20 mg/kg, IP, 24 hours, read-out: Plasma concentration (IP)
  concentration at 24 h: 7.17 ng/mL
[1]; male, CD-1, mouse, in vivo, iv, 5 mg/kg, IV, 0.5 hours, read-out: Plasma concentration (IV)
  concentration at 0.5 h: 412 ng/mL
[1]; male, CD-1, mouse, in vivo, iv, 5 mg/kg, IV, 4 hours, read-out: Plasma concentration (IV)
  concentration at 4 h: 20.4 ng/mL
[1]; male, CD-1, mouse, in vivo, iv, 5 mg/kg, IV, 8 hours, read-out: Plasma concentration (IV)
  concentration at 8 h: 10.9 ng/mL
[1]; male, CD-1, mouse, in vivo, po, 20 mg/kg, PO, 0.5 hours, read-out: Plasma concentration (PO)
  concentration at 0.5 h: 42.6 ng/mL
[1]; male, CD-1, mouse, in vivo, po, 20 mg/kg, PO, 4 hours, read-out: Plasma concentration (PO)
  concentration at 4 h: 15.4 ng/mL
[1]; male, CD-1, mouse, plasma, ip, 20 mg/kg, IP, 0.083 hours, read-out: Plasma concentration (IP)
  concentration at 0.083 h: 451 ng/mL
[1]; male, CD-1, mouse, plasma, ip, 20 mg/kg, IP, 0.25 hours, read-out: Plasma concentration (IP)
  concentration at 0.25 h: 509 ng/mL
[1]; male, CD-1, mouse, plasma, ip, 20 mg/kg, IP, 0.5 hours, read-out: Plasma concentration (IP)
  concentration at 0.5 h: 596 ng/mL
[1]; male, CD-1, mouse, plasma, ip, 20 mg/kg, IP, 1 hours, read-out: Plasma concentration (IP)
  concentration at 1 h: 349 ng/mL
[1]; male, CD-1, mouse, plasma, ip, 20 mg/kg, IP, 2 hours, read-out: Plasma concentration (IP)
  concentration at 2 h: 259 ng/mL
[1]; male, CD-1, mouse, plasma, ip, 20 mg/kg, IP, 4 hours, read-out: Plasma concentration (IP)
  concentration at 4 h: 126 ng/mL
[1]; male, CD-1, mouse, plasma, ip, 20 mg/kg, IP, 6 hours, read-out: Plasma concentration (IP)
  concentration at 6 h: 75.3 ng/mL
[1]; male, CD-1, mouse, plasma, ip, 20 mg/kg, IP, 8 hours, read-out: Plasma concentration (IP)
  concentration at 8 h: 53.2 ng/mL
[1]; male, CD-1, mouse, plasma, ip, 20 mg/kg, IP, 24 hours, read-out: Plasma concentration (IP)
  concentration at 24 h: 9.14 ng/mL
[1]; male, CD-1, mouse, plasma, ip, mice, 20 mg/kg i.p., read-out: mean peak plasma concentration (Cmax)
  Cmax: 681 ng/mL
[1]; male, CD-1, mouse, plasma, ip, mice, 20 mg/kg i.p., read-out: t1/2 (converted)
  half-life: 6.33 h
[1]; male, CD-1, mouse, plasma, iv, 5 mg/kg, IV, 0.083 hours, read-out: Plasma concentration (IV)
  concentration at 0.083 h: 2070 ng/mL
[1]; male, CD-1, mouse, plasma, iv, 5 mg/kg, IV, 0.25 hours, read-out: Plasma concentration (IV)
  concentration at 0.25 h: 1200 ng/mL
[1]; male, CD-1, mouse, plasma, iv, 5 mg/kg, IV, 0.5 hours, read-out: Plasma concentration (IV)
  concentration at 0.5 h: 361 ng/mL
[1]; male, CD-1, mouse, plasma, iv, 5 mg/kg, IV, 1 hours, read-out: Plasma concentration (IV)
  concentration at 1 h: 122 ng/mL
[1]; male, CD-1, mouse, plasma, iv, 5 mg/kg, IV, 2 hours, read-out: Plasma concentration (IV)
  concentration at 2 h: 24.3 ng/mL
[1]; male, CD-1, mouse, plasma, iv, 5 mg/kg, IV, 4 hours, read-out: Plasma concentration (IV)
  concentration at 4 h: 13.4 ng/mL
[1]; male, CD-1, mouse, plasma, iv, 5 mg/kg, IV, 6 hours, read-out: Plasma concentration (IV)
  concentration at 6 h: 11.6 ng/mL
[1]; male, CD-1, mouse, plasma, iv, 5 mg/kg, IV, 8 hours, read-out: Plasma concentration (IV)
  concentration at 8 h: 8.84 ng/mL
[1]; male, CD-1, mouse, plasma, iv, 5 mg/kg, IV, 24 hours, read-out: Plasma concentration (IV)
  concentration at 24 h: 2.62 ng/mL
[1]; male, CD-1, mouse, plasma, iv, mice, 5 mg/kg i.v., read-out: mean initial plasma concentration
  C0: 1860 ng/mL
[1]; male, CD-1, mouse, plasma, iv, mice, 5 mg/kg i.v., read-out: steady-state volume of distribution (Vss)
  Vd: 15.4 L/kg
[1]; male, CD-1, mouse, plasma, iv, mice, 5 mg/kg i.v., read-out: systemic clearance
  clearance: 77.9 mL/min/kg
[1]; male, CD-1, mouse, plasma, iv, mice, 5 mg/kg i.v., read-out: terminal half-life (t1/2) (converted)
  half-life: 8.72 h
[1]; male, CD-1, mouse, plasma, po, 20 mg/kg, PO, 0.083 hours, read-out: Plasma concentration (PO)
  concentration at 0.083 h: 310 ng/mL
[1]; male, CD-1, mouse, plasma, po, 20 mg/kg, PO, 0.25 hours, read-out: Plasma concentration (PO)
  concentration at 0.25 h: 78.2 ng/mL
[1]; male, CD-1, mouse, plasma, po, 20 mg/kg, PO, 0.5 hours, read-out: Plasma concentration (PO)
  concentration at 0.5 h: 35.8 ng/mL
[1]; male, CD-1, mouse, plasma, po, 20 mg/kg, PO, 1 hours, read-out: Plasma concentration (PO)
  concentration at 1 h: 22.5 ng/mL
[1]; male, CD-1, mouse, plasma, po, 20 mg/kg, PO, 2 hours, read-out: Plasma concentration (PO)
  concentration at 2 h: 17.7 ng/mL
[1]; male, CD-1, mouse, plasma, po, 20 mg/kg, PO, 4 hours, read-out: Plasma concentration (PO)
  concentration at 4 h: 11.5 ng/mL
[1]; male, CD-1, mouse, plasma, po, 20 mg/kg, PO, 6 hours, read-out: Plasma concentration (PO)
  concentration at 6 h: 13.1 ng/mL
[1]; male, CD-1, mouse, plasma, po, 20 mg/kg, PO, 8 hours, read-out: Plasma concentration (PO)
  concentration at 8 h: 11.7 ng/mL
[1]; male, CD-1, mouse, plasma, po, 20 mg/kg, PO, 24 hours, read-out: Plasma concentration (PO)
  concentration at 24 h: 3.18 ng/mL
[1]; male, CD-1, mouse, plasma, po, mice, 20 mg/kg p.o., read-out: t1/2 (converted)
  half-life: 8.76 h
[1]; male, CD-1, mouse, plasma, mice, 20 mg/kg oral, read-out: Cmax
  Cmax: 294 ng/mL
[1]; mice, 24 hours, result in words
  adverse clinical signs during PK studies: No adverse clinical signs were observed
